Measurements from patent US7786161B2, “Carboxylic acid derivatives and pharmaceutical agent comprising the same as active ingredient” (ONO Pharmaceutical Co., Ltd., priority 2001, dated 2010).

How the values were obtained:
Assay in all cases: Receptor-binding experiment using cells expressing prostanoid receptor subtypes (3H-PGE2 binding, CHO cell membrane)
EP3 receptor = molecular target: T1, EP3 receptor (Mus musculus, UniProt P30557); details: 3H-PGE2 (2.5 nM) binding inhibition, membrane of CHO cells expressing mouse EP3; Ki=IC50/(1+([C]/Kd))
T1 construct: expressed in transfected cells; host or cells: CHO cells
T1 sequence (P30557 1-365): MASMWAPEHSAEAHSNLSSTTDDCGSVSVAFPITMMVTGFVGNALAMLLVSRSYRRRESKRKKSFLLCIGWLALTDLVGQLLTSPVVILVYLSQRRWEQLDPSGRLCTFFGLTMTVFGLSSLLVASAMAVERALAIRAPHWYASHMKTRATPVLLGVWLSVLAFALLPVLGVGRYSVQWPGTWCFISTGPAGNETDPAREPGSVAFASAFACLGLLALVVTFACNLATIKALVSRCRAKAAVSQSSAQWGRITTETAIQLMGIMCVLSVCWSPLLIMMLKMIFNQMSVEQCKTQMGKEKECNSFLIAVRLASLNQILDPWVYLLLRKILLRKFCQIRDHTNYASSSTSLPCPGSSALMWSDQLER
Experimental: (§1) The pharmacological activity is confirmed by the following receptor-binding experiment by using cells expressing prostanoid receptor subtypes. • (i) Receptor-binding experiment by using cells expressing prostanoid receptor subtypes In accordance with the method of Sugimoto et al. [J. Biol. Chem., 267, 6463-6466 (1992)], CHO cells respectively expressing prostanoid receptor subtypes (mouse EP1, EP2, EP3, and EP4) were prepared to give membrane preparations.
(§2) Each membrane fraction (50 μl) thus prepared and a reaction solution (150 μl) containing ^3H-PGE2 were incubated at room temperature for 1 hour. After ceasing the reaction with an ice-cooled buffer (3 ml), the bound ^3H-PGE2 was trapped in a glass filter (GF/B) by filtering with suction under reduced pressure. Then the bound radioactivity was measured with a liquid scintillator.
(§3) Kd value and Bmax value were determined by Scatchard plots [Ann. N.Y. Acad. Sci., 51, 660 (1949)]. Nonspecific bond was determined as bond in the presence of unlabeled PGE2 in excess (2.5 μM). The ^3H-PGE2-binding inhibitory effects of the invention compounds were measured by adding ^3H-PGE2 (2.5 nM) and the invention compounds at various concentrations. In every reaction, the following buffer was employed.
(§4) Buffer: potassium phosphate (10 mM, pH 6.0), EDTA (1 mM), MgCl2 (10 mM), NaCl (0.1 M).
(§5) The dissociation constant Ki (μM) of each compound was determined in accordance with the following formula. […] Ki=IC50/(1+([C]/Kd))

EP4 receptor = molecular target: T2, EP4 receptor (Mus musculus, UniProt P32240); details: 3H-PGE2 (2.5 nM) binding inhibition, membrane of CHO cells expressing mouse EP4; Ki=IC50/(1+([C]/Kd))
T2 construct: expressed in transfected cells; host or cells: CHO cells
T2 sequence (P32240 whole entry): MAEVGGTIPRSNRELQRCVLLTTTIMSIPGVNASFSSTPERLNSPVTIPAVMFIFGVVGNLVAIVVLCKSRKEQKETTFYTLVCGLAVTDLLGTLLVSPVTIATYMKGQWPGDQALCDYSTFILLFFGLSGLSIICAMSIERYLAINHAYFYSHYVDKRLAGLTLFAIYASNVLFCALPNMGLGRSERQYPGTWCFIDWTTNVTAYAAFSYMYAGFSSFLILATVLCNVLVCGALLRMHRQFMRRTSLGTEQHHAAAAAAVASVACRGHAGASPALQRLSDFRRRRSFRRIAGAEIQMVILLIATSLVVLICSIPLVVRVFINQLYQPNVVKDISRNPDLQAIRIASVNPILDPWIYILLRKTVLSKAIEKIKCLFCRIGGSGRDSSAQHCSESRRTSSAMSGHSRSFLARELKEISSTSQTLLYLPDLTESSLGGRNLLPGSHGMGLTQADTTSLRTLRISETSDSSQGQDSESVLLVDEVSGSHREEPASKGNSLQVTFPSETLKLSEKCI
Experimental: as §1, §2, §3, §4, §5

EP1 receptor = molecular target: T3, EP1 receptor (Mus musculus, UniProt P35375); details: 3H-PGE2 (2.5 nM) binding inhibition, membrane of CHO cells expressing mouse EP1; Ki=IC50/(1+([C]/Kd))
T3 construct: expressed in transfected cells; host or cells: CHO cells
T3 sequence (P35375 1-405): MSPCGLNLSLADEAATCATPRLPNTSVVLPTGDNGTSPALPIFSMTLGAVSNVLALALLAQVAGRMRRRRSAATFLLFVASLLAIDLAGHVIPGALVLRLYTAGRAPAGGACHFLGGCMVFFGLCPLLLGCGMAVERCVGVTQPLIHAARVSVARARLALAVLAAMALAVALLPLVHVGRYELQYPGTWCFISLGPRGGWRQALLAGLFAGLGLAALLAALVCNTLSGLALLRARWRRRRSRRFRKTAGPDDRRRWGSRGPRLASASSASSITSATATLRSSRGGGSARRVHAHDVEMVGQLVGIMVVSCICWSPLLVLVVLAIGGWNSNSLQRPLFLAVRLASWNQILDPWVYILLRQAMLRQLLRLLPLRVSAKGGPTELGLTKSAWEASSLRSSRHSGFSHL
Experimental: as §1, §2, §3, §4, §5

EP2 receptor = molecular target: T4, EP2 receptor (Mus musculus, UniProt Q62053); details: 3H-PGE2 (2.5 nM) binding inhibition, membrane of CHO cells expressing mouse EP2; Ki=IC50/(1+([C]/Kd))
T4 construct: expressed in transfected cells; host or cells: CHO cells
T4 sequence (Q62053 whole entry): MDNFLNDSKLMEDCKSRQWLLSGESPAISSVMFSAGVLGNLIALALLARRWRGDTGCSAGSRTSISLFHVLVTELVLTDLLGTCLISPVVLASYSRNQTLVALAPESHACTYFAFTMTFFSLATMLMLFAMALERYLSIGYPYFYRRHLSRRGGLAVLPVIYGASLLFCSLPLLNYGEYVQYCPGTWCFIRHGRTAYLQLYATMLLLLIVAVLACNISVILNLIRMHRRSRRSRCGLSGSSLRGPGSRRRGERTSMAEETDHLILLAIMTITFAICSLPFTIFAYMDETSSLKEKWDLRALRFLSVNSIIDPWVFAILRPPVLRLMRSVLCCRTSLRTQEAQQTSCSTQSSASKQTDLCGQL
Experimental: as §1, §2, §3, §4, §5

Ki (EP3 receptor): 270 nM
Ki (EP4 receptor): 38 nM
Ki (EP1 receptor): > 10000 nM
Ki (EP2 receptor): > 10000 nM
Structure (SMILES): CSCc1ccc(CCCC(=O)O)c(NC(=O)C(C)c2cccc3ccccc23)c1 (stereo not shown) [Example 8(13), 4-(2-((2-(naphthalen-1-yl)propanoyl)amino)-4-methylthiomethylphenyl)butanoic acid]
